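Briefly, cells in 96-well plates were exposed to five compound concentrations for 48 h, and endpoints were estimated by linear interpolation. TGI: concentration producing complete growth inhibition.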
Experiments:
Test in all cases: NCI tumour cell line growth inhibition, 48 h
NCI-H23 lung = test system: NCI-H23 lung
CCRF-CEM leukemia = test system: CCRF-CEM leukemia
HCT-116 colon = test system: HCT-116 colon
SF-295 CNS = test system: SF-295 CNS
SF-539 CNS = test system: SF-539 CNS
OVCAR-3 ovarian = test system: OVCAR-3 ovarian
ACHN renal = test system: ACHN renal
NCI-H226 lung = test system: NCI-H226 lung
SK-MEL-28 melanoma = test system: SK-MEL-28 melanoma
KM12 colon = test system: KM12 colon
SR leukemia = test system: SR leukemia
TK-10 renal = test system: TK-10 renal
RXF 393 renal = test system: RXF 393 renal
NCI-H522 lung = test system: NCI-H522 lung
HT29 colon = test system: HT29 colon
LOX IMVI melanoma = test system: LOX IMVI melanoma
IGROV1 ovarian = test system: IGROV1 ovarian
A498 renal = test system: A498 renal
NCI-H460 lung = test system: NCI-H460 lung
MDA-N = test system: MDA-N
K-562 leukemia = test system: K-562 leukemia
HS 578T breast = test system: HS 578T breast
PC-3 prostate = test system: PC-3 prostate
MOLT-4 leukemia = test system: MOLT-4 leukemia
OVCAR-4 ovarian = test system: OVCAR-4 ovarian
SK-MEL-2 melanoma = test system: SK-MEL-2 melanoma
HOP-62 NSCLC = test system: HOP-62 NSCLC
HCC-2998 colon = test system: HCC-2998 colon
MDA-MB-231 breast = test system: MDA-MB-231 breast
BT-549 breast = test system: BT-549 breast
NCI/ADR-RES ovarian = test system: NCI/ADR-RES ovarian
SK-MEL-5 melanoma = test system: SK-MEL-5 melanoma
786-0 renal = test system: 786-0 renal
SNB-75 CNS = test system: SNB-75 CNS
MCF7 breast = test system: MCF7 breast
U251 CNS = test system: U251 CNS
SK-OV-3 ovarian = test system: SK-OV-3 ovarian
SF-268 CNS = test system: SF-268 CNS
MDA-MB-435 = test system: MDA-MB-435
DU-145 prostate = test system: DU-145 prostate
HOP-92 NSCLC = test system: HOP-92 NSCLC
M14 melanoma = test system: M14 melanoma
SNB-19 CNS = test system: SNB-19 CNS
OVCAR-5 ovarian = test system: OVCAR-5 ovarian
UACC-257 melanoma = test system: UACC-257 melanoma
RPMI-8226 leukemia = test system: RPMI-8226 leukemia
CAKI-1 renal = test system: CAKI-1 renal
SN12C renal = test system: SN12C renal
OVCAR-8 ovarian = test system: OVCAR-8 ovarian
HCT-15 colon = test system: HCT-15 colon
UACC-62 melanoma = test system: UACC-62 melanoma
HL-60(TB) leukemia = test system: HL-60(TB) leukemia
SW-620 colon = test system: SW-620 colon
A549 NSCLC = test system: A549 NSCLC
MALME-3M melanoma = test system: MALME-3M melanoma
T-47D breast = test system: T-47D breast
EKVX NSCLC = test system: EKVX NSCLC
COLO 205 colon = test system: COLO 205 colon
UO-31 renal = test system: UO-31 renal

With `COc1cc([C@@H]2c3cc4c(cc3[C@@H](Nc3ccc(N=Cc5ccc(C(=O)O[C@@H](C(=O)O[C@H]6C[C@@]7(O)[C@@H](OC(=O)c8ccccc8)[C@@H]8[C@]9(OC(C)=O)CO[C@@H]9C[C@H](O)[C@@]8(C)C(=O)[C@H](OC(C)=O)C(=C6C)C7(C)C)[C@@H](NC(=O)c6ccccc6)c6ccccc6)cc5)cc3)[C@H]3COC(=O)[C@H]23)OCO4)cc(OC)c1O` the TGI (NCI-H23 lung) was > 38.9 µM, the TGI (CCRF-CEM leukemia) was 11 µM and the TGI (HCT-116 colon) was > 50 µM. For the same compound, the TGI (SF-295 CNS) was > 27.7 µM, the TGI (SF-539 CNS) was > 47.3 µM and the TGI (OVCAR-3 ovarian) was > 50 µM. For the same compound, the TGI (ACHN renal) was 10.5 µM, the TGI (NCI-H226 lung) was 29.3 µM and the TGI (SK-MEL-28 melanoma) was > 50 µM. The TGI (KM12 colon) was > 50 µM, the TGI (SR leukemia) was 0.35 µM and the TGI (TK-10 renal) was > 50 µM. The TGI (RXF 393 renal) was > 50 µM, the TGI (NCI-H522 lung) was > 50 µM and the TGI (HT29 colon) was > 50 µM. For the same compound, the TGI (LOX IMVI melanoma) was > 50 µM, the TGI (IGROV1 ovarian) was > 50 µM and the TGI (A498 renal) was 4.48 µM. The TGI (NCI-H460 lung) was 15.9 µM, the TGI (MDA-N) was > 50 µM and the TGI (K-562 leukemia) was > 22.5 µM. The TGI (HS 578T breast) was > 50 µM, the TGI (PC-3 prostate) was > 50 µM and the TGI (MOLT-4 leukemia) was 10.5 µM. The TGI (OVCAR-4 ovarian) was > 50 µM, the TGI (SK-MEL-2 melanoma) was > 50 µM and the TGI (HOP-62 NSCLC) was > 40.2 µM. The TGI (HCC-2998 colon) was > 50 µM, the TGI (MDA-MB-231 breast) was > 50 µM and the TGI (BT-549 breast) was > 50 µM. For the same compound, the TGI (NCI/ADR-RES ovarian) was > 50 µM, the TGI (SK-MEL-5 melanoma) was > 42.9 µM and the TGI (786-0 renal) was 9.53 µM. The TGI (SNB-75 CNS) was 37.2 µM, the TGI (MCF7 breast) was > 50 µM and the TGI (U251 CNS) was 35.4 µM. For the same compound, the TGI (SK-OV-3 ovarian) was > 35.8 µM, the TGI (SF-268 CNS) was > 45.6 µM and the TGI (MDA-MB-435) was > 50 µM. The TGI (DU-145 prostate) was 17.2 µM, the TGI (HOP-92 NSCLC) was > 50 µM and the TGI (M14 melanoma) was > 50 µM. The TGI (SNB-19 CNS) was > 50 µM, the TGI (OVCAR-5 ovarian) was > 39.1 µM and the TGI (UACC-257 melanoma) was > 50 µM. It also gave a TGI (RPMI-8226 leukemia) of 28.2 µM, a TGI (CAKI-1 renal) of 14.4 µM and a TGI (SN12C renal) of 17.2 µM. The TGI (OVCAR-8 ovarian) was > 50 µM, the TGI (HCT-15 colon) was > 50 µM and the TGI (UACC-62 melanoma) was > 50 µM. For the same compound, the TGI (HL-60(TB) leukemia) was 9.73 µM, the TGI (SW-620 colon) was > 50 µM and the TGI (A549 NSCLC) was > 50 µM. The TGI (MALME-3M melanoma) was > 50 µM, the TGI (T-47D breast) was > 50 µM and the TGI (EKVX NSCLC) was > 50 µM. For the same compound, the TGI (COLO 205 colon) was > 50 µM.

`Cc1ccc(O)c(C(c2ccc(C(c3cc(C)ccc3O)c3cc(C)ccc3O)cc2)c2cc(C)ccc2O)c1` was tested, and the TGI (NCI-H23 lung) was 3.25 µM, the TGI (CCRF-CEM leukemia) was 5.63 µM and the TGI (HCT-116 colon) was 3.04 µM. For the same compound, the TGI (SF-295 CNS) was 4.01 µM, the TGI (SF-539 CNS) was 3.29 µM and the TGI (OVCAR-3 ovarian) was 3.86 µM. It also gave a TGI (ACHN renal) of 3.17 µM, a TGI (NCI-H226 lung) of 3.61 µM and a TGI (SK-MEL-28 melanoma) of 3.5 µM. It also gave a TGI (KM12 colon) of 3.09 µM, a TGI (SR leukemia) of 6.33 µM and a TGI (TK-10 renal) of 2.93 µM. The TGI (RXF 393 renal) was 3.4 µM, the TGI (NCI-H522 lung) was 3.62 µM and the TGI (HT29 colon) was 3.57 µM. For the same compound, the TGI (LOX IMVI melanoma) was 3.38 µM, the TGI (IGROV1 ovarian) was 3.16 µM and the TGI (A498 renal) was 2.91 µM. For the same compound, the TGI (MDA-N) was 2.87 µM, the TGI (K-562 leukemia) was 3.56 µM and the TGI (HS 578T breast) was 4.7 µM. The TGI (PC-3 prostate) was 3 µM, the TGI (MOLT-4 leukemia) was > 100 µM and the TGI (OVCAR-4 ovarian) was 3.22 µM. It also gave a TGI (SK-MEL-2 melanoma) of 3.89 µM, a TGI (HOP-62 NSCLC) of 4.36 µM and a TGI (HCC-2998 colon) of 3.31 µM. It also gave a TGI (MDA-MB-231 breast) of 2.67 µM, a TGI (BT-549 breast) of 3.49 µM and a TGI (NCI/ADR-RES ovarian) of 3.85 µM. The TGI (SK-MEL-5 melanoma) was 3.22 µM, the TGI (786-0 renal) was 3.11 µM and the TGI (SNB-75 CNS) was 3.49 µM. For the same compound, the TGI (MCF7 breast) was 4.36 µM, the TGI (U251 CNS) was 3.82 µM and the TGI (SK-OV-3 ovarian) was 3.27 µM. It also gave a TGI (SF-268 CNS) of 3.31 µM, a TGI (MDA-MB-435) of 3.29 µM and a TGI (DU-145 prostate) of 3.21 µM. It also gave a TGI (HOP-92 NSCLC) of 3.81 µM, a TGI (M14 melanoma) of 3.36 µM and a TGI (SNB-19 CNS) of 2.97 µM. For the same compound, the TGI (OVCAR-5 ovarian) was 3.28 µM, the TGI (UACC-257 melanoma) was 3.33 µM and the TGI (RPMI-8226 leukemia) was 3.4 µM. For the same compound, the TGI (CAKI-1 renal) was 2.92 µM, the TGI (SN12C renal) was 3.1 µM and the TGI (OVCAR-8 ovarian) was 3.41 µM. It also gave a TGI (HCT-15 colon) of 3.2 µM, a TGI (UACC-62 melanoma) of 3.15 µM and a TGI (HL-60(TB) leukemia) of 5.47 µM. The TGI (SW-620 colon) was 3.48 µM, the TGI (A549 NSCLC) was 3.23 µM and the TGI (MALME-3M melanoma) was 3.45 µM. For the same compound, the TGI (T-47D breast) was 3.23 µM, the TGI (EKVX NSCLC) was 3.57 µM and the TGI (UO-31 renal) was 3.25 µM. The TGI (COLO 205 colon) was 2.75 µM.
